Patent publication US20230189808A1, “SELECTIVE HERBICIDES BASED ON SUBSTITUTED ISOXAZOLIN CARBOXAMIDES AND FURILAZOLE” (Bayer Aktiengesellschaft, priority 2020, published 2023)

Legend:
ZEAMA Sileno [1] = experiment: Safener seed treatment with pre-emergence herbicide application, crop damage test in greenhouse; assay type: in vivo, maize; set-up: key to Reduction [Difference]: difference in % crop damage (visual score vs untreated control); details: for Reduction [%] / Reduction [Difference]: furilazole 0.25 g a.i./kg seed; for HER effect + SAF [%] / HER effect [%]: pre-emergence; for HER effect + SAF [%]: furilazole seed treatment 0.25 g a.i./kg seed; for HER effect [%]: % crop damage
Procedure: Seed Treatment; Pre-Emergence • A) Method Description
For the safener seed treatment, sufficient seeds of the respective crops (spring wheat, TRZAS; spring barley, HORVS; maize, ZEAMA) were weighed into screw top glass bottles approximately twice the volume of the seeds.
The specified safeners, formulated as wettable powder (WP) were weighed out so that the specified rates (g a·i·/kg seed) would be obtained, dissolved in water (1 ml water per 10 g of seeds), and added to the seeds to produce a slurry.
The bottles were capped and then placed in an overhead shaker (set at medium speed for ca. 60 minutes) so that the seeds were evenly coated with the slurry. The bottles were uncapped and the seeds were either placed on paper and dried for an interval of 3-4 hours prior to sowing, or directly sown. Seeds were placed in sandy loam soil in pots of a diameter of 7-8 cm, and covered with soil.
Pre-emergence application of the specified herbicides was done subsequently, on two sets of plants:
a) seed treatment with safener, as described above
The herbicides were formulated as WP and was sprayed onto the soil surface as an aqueous suspension at an equivalent water application rate of 300 1/ha.
After application, the test plants were kept in the greenhouse under good growth conditions. At intervals up to 4 weeks after application (=28 days after treatment; DAT), % crop damage observed on the treated plants was scored visually in comparison to control plants that had not received any safener or herbicide treatment.
Values in the table below are mean values of at least 2 replicates.
(§1) Plant Species, Variety: ZEAMA Sileno, Safener (SAF): Furilazole

ZEAMA Sileno [2] = experiment: Tank-mix post-emergence crop damage and safener test in greenhouse; assay type: in vivo, maize; details: final assessment
Procedure: Tank-Mix; Post-Emergence • A) Method Description
Seeds of crops (spring wheat, TRZAS; spring barley, HORVS; maize, ZEAMA) were placed in sandy loam soil in peat pots, covered with soil and cultivated in a greenhouse under good growth conditions. Two to three weeks after sowing, the test plants were treated at the 1 to 3-leaf stage. The herbicide/safener active compound combinations according to the invention, formulated as wettable powders or emulsion concentrates, and, in parallel tests, the correspondingly formulated individual active compounds were sprayed onto the green parts of the plants in various dosages using an amount of water of 300 1/ha (converted).
The pots were returned under good growing conditions in a glasshouse and a visual assessment of herbicidal effects was made at intervals from 1 to 3 weeks after herbicide application (DAT=days after treatment). Assessment was on a percentage basis in comparison with untreated control plants (0%=no injury, 100%=complete kill).
as §1

[3] = herbicide alone 40 g a.i./ha, 14 DAT
[4] = herbicide alone 40 g a.i./ha, 26 DAT
[5] = herbicide alone 80 g a.i./ha, 14 DAT
[6] = herbicide alone 80 g a.i./ha, 26 DAT

Row | SMILES | Reduction [%] (ZEAMA Sileno [1]; herbicide 40 g a.i./ha, 14 DAT) | Reduction [Difference] (ZEAMA Sileno [1]; herbicide 40 g a.i./ha, 14 DAT) | Reduction [%] (ZEAMA Sileno [1]; herbicide 40 g a.i./ha, 26 DAT) | Reduction [Difference] (ZEAMA Sileno [1]; herbicide 40 g a.i./ha, 26 DAT) | Reduction [%] (ZEAMA Sileno [1]; herbicide 80 g a.i./ha, 14 DAT) | Reduction [Difference] (ZEAMA Sileno [1]; herbicide 80 g a.i./ha, 14 DAT) | Reduction [%] (ZEAMA Sileno [1]; herbicide 80 g a.i./ha, 26 DAT) | Reduction [Difference] (ZEAMA Sileno [1]; herbicide 80 g a.i./ha, 26 DAT) | HER effect + SAF [%] (ZEAMA Sileno [1]; herbicide 40 g a.i./ha, 14 DAT) | HER effect + SAF [%] (ZEAMA Sileno [1]; herbicide 40 g a.i./ha, 26 DAT) | HER effect + SAF [%] (ZEAMA Sileno [1]; herbicide 80 g a.i./ha, 14 DAT) | HER effect + SAF [%] (ZEAMA Sileno [1]; herbicide 80 g a.i./ha, 26 DAT) | HER effect [%] (ZEAMA Sileno [1]; [3]) | HER effect [%] (ZEAMA Sileno [1]; [4]) | HER effect [%] (ZEAMA Sileno [1]; [5]) | HER effect [%] (ZEAMA Sileno [1]; [6]) | Reduction [%] (ZEAMA Sileno [2]; Reduction [Difference]*100/herbicide damage without safener, herbicide 32 g a.i./ha, furilazole 100 g a.i./ha) | Reduction [Difference] (ZEAMA Sileno [2]; herbicide damage without safener minus with safener, herbicide 32 g a.i./ha, furilazole 100 g a.i./ha) | HER effect + SAF [%] (ZEAMA Sileno [2]; post-emergence tank-mix, herbicide 32 g a.i./ha + furilazole 100 g a.i./ha) | HER effect [%] (ZEAMA Sileno [2]; post-emergence, herbicide alone 32 g a.i./ha, visual crop injury (0%=no injury, 100%=complete kill))
1 | C=CC1(C(=O)NC2COC(C(=O)OC)C2)CC(c2cc(F)cc(F)c2)=NO1 (mixture of isomers) [Example 1.68] | 73% | 68 | 79% | 75 | 38% | 37 | 40% | 40 | 25% | 20% | 60% | 60% | 93% | 95% | 97% | 100% | – | – | – | –
2 | COCCOC(=O)C1C=CC(NC(=O)C2(C(F)(F)F)CC(c3cc(F)cc(C#N)c3)=NO2)C1 (centres unmarked) [Example 1.2] | 63% | 25 | – | – | 100% | 45 | – | – | 15% | – | 0% | – | 40% | – | 45% | – | – | – | – | –
3 | COCCOC(=O)C1C=CC(NC(=O)C2(C)CC(c3cc(Cl)cc(C#N)c3)=NO2)C1 (centres unmarked) [Example 1.5] | – | – | – | – | 33% | 20 | 67% | 30 | – | – | 40% | 15% | – | – | 60% | 45% | – | – | – | –
4 | CSCCOC(=O)C1C=CC(NC(=O)C2(C(F)(F)F)CC(c3cc(F)cc(F)c3)=NO2)C1 (centres unmarked) [Example 1.7] | 34% | 28 | – | – | – | – | – | – | 55% | – | – | – | 83% | – | – | – | – | – | – | –
5 | C=CC1(C(=O)NC2C=CC(C(=O)OC)C2)CC(c2cc(F)cc(F)c2)=NO1 (centres unmarked) [Example 1.26] | – | – | 80% | 40 | 79% | 55 | 86% | 60 | – | 10% | 15% | 10% | – | 50% | 70% | 70% | 61% | 57 | 37% | 94%
6 | CN(C)C(=O)SCCOC(=O)C1C=CC(NC(=O)C2(C)CC(c3cc(F)cc(F)c3)=NO2)C1 (centres unmarked) [Example 1.29] | – | – | – | – | 50% | 30 | – | – | – | – | 30% | – | – | – | 60% | – | – | – | – | –
7 | CC1(C(=O)NC2C=CC(C(=O)O)C2)CC(c2cc(F)cc(F)c2)=NO1 (centres unmarked) [Example 1.36] | – | – | – | – | 40% | 33 | – | – | – | – | 50% | – | – | – | 83% | – | – | – | – | –
8 | COC(=O)C1=C[C@@H](NC(=O)[C@@]2(C)CC(c3cc(F)cc(F)c3)=NO2)CC1 [Example 1.63] | 50% | 30 | 100% | 25 | – | – | – | – | 30% | 0% | – | – | 60% | 25% | – | – | – | – | – | –
9 | C=CC1(C(=O)NC2COC(C(=O)OC)C2)CC(c2cc(F)cc(F)c2)=NO1 (centres unmarked) [Example 1.69] | 37% | 35 | – | – | – | – | – | – | 60% | – | – | – | 95% | – | – | – | – | – | – | –
10 | C=CC1(C(=O)NC2COC(C(=O)OC)C2)CC(c2cc(F)cc(F)c2)=NO1 (centres unmarked) [Example 1.70] | 44% | 35 | 24% | 20 | 58% | 55 | 63% | 60 | 45% | 65% | 40% | 35% | 80% | 85% | 95% | 95% | – | – | – | –
11 | C=CC1(C(=O)NC2C=C(C(=O)OC)OC2)CC(c2cc(C)cc(C)c2)=NO1 (centres unmarked) [Example 1.90] | – | – | – | – | 80% | 20 | 100% | 30 | – | – | 5% | 0% | – | – | 25% | 30% | – | – | – | –
12 | COC(=O)[C@H]1OCC[C@@H]1NC(=O)[C@@]1(C)CC(c2cc(F)cc(F)c2)=NO1 [Example 1.92] | 100% | 75 | 86% | 60 | – | – | – | – | 0% | 10% | – | – | 75% | 70% | – | – | – | – | – | –
